This is an account of results in patent publication US12459939B2 (SHANGHAI RINGENE BIOPHARMA CO., LTD., priority 2019, dated 2025).

The structures appear in SMILES notation.

A short description of the data set: Metabolic stability in rat liver microsomes. The following applies: liver microsomes 0.5 mg/mL, NADPH, 1 μM compound, read-out: Rat microsomal T1/2. Format: in vitro ADME. The procedure: (1) Metabolic stability test: 150 μL of liver microsomes (final concentration was 0.5 mg/mL) were subjected to metabolic stability incubation, the system containing NADPH (final concentration was 1 mM), 1 μM of the test compound and the positive control midazolam or the negative control atenolol, the reaction was terminated with acetonitrile containing tinidazole at 0 min, 5 min, 10 min, and 30 min, respectively, then the mixture was vortexed for 10 min, and centrifuged at 15000 rmp for 10 min, 50 μL of the supernatant was injected into 96 well. The metabolic stability of the compound was calculated by measuring the relative reduction of the original drug. (See Table 3 for specific values)
(In general: Liver microsomes are vesicles of endoplasmic reticulum, rich in cytochrome P450 enzymes.)

For the compound `Cc1cc(F)cc(C)c1Oc1ccc(C(C)(C)O)cc1-c1cn(C)c(=O)c2cc(C(=O)NC3CC(F)(F)C3)[nH]c12` [Embodiment 18, N-(3,3-difluorocyclobutyl)-7-(2-(4-fluoro-2,6-dimethylphenoxy)-5-(2-hydroxyprop-2-yl)phenyl)-5-methyl-4-oxo-4,5-dihydro-1H-pyrrolo[3,2-c] pyridine-2-amide], the half-life at 1 μM amounted to 1.38 h.
